Data from patent publication US8153818B2, “Triazolyl phenyl benzenesulfonamides” (ChemoCentryx, Inc., priority 2006, dated 2012).

These compounds were tested against T1, CCR9 (Homo sapiens, UniProt P51686) (assay: CCR9 activity in one of the chemotaxis, binding or calcium mobilization assays). Settings: assay not specified per compound.
T1 construct: chemokine expressing cells (such as THP-1 cells for CCR2 assay or MOLT-4 cells for CCR9 assay); host or cells: MOLT-4
T1 sequence (P51686 1-369): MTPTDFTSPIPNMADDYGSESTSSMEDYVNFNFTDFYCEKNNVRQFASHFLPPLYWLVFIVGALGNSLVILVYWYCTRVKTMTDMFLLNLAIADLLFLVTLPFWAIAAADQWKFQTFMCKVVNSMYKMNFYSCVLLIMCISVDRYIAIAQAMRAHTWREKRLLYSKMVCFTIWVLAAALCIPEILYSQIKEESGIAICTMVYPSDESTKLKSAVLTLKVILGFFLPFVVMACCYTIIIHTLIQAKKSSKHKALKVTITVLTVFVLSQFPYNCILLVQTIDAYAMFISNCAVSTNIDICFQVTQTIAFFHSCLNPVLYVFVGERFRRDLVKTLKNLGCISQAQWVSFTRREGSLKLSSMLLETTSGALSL
Format: cell-based
Description: Conventional migration assay was used to determine the efficacy of potential receptor antagonists in blocking migration mediated through chemokines (such as CCR2 or CCR9). This assay was routinely performed using the ChemoTX® microchamber system with a 5-μm pore-sized polycarbonate membrane. To begin such an assay, chemokine expressing cells (such as THP-1 cells for CCR2 assay or MOLT-4 cells for CCR9 assay) were harvested by centrifugation of cell suspension at 1000 RPM on a GS-6R Beckman centrifuge. The cell pellet was resuspended in chemotaxis buffer (HBSS with 0.1% BSA) at 10×10^6 cells/mL for CCR2 assay (5×10^6 cells/mL for CCR9 assay). Test compounds at desired concentrations were prepared from 10 mM stock solutions by serial dilutions in chemotaxis buffer. An equal volume of cells and compounds were mixed and incubated at room temperature for 15 minutes. Afterwards, 20 μL of the mixture was transferred onto the porous membrane of a migration microchamber, with 29 μL of chemokine ligand (0.1 nM chemokine MCP-1 protein for CCR2 assay or […] chemokine TECK protein for CCR9 assay) placed at the lower chamber. Following an incubation at 37° C. (90-minute for CCR2; 150-minute for CCR9), during which cells migrated against the chemokine gradient, the assay was terminated by removing the cell drops from atop the filter. To quantify cells migrated across the membrane, 5 μL of 7×CyQUANT® solution was added to each well in the lower chamber, and the fluorescence signal measured on a Spectrafluor Plus fluorescence plate reader (TECAN, Durham, N.C.). The degree of inhibition was determined by comparing migration signals between compound-treated and untreated cells. IC50 calculation was further performed by non-linear squares regression analysis using Graphpad Prism (Graphpad Software, San Diego, Calif.).
Calcium flux assay measures an increase in intracellular calcium following ligand-induced receptor activation. In the screen of chemokine antagonists, it was used as a secondary assay carried out on a FLIPR® machine (Molecular Devices, Mountain View, Calif.). To begin an assay, chemokine expressing cells (such as THP-1 cells for CCR2 assay or MOLT-4 cells for CCR9 assay) were harvested by centrifugation of cell suspension, and resuspended to 1.5×10^6 cells/mL in HBSS (with 1% fetal calf serum). Cells were then labeled with a calcium indicator dye Fluo-4 AM for 45 minutes at 37° C. with gentle shaking. Following incubation, cells were pelletted, washed once with HBSS and resuspended in the same buffer at a density of 1.6×10^6 cells/mL. One hundred microliters of labeled cells were mixed with 10 μL of test compound at the appropriate concentrations on an assay plate. Chemokine protein (MCP-1 at a final concentration of 0.1 nM for CCR2 assay or TECK at a final concentration of 25 nM for CCR9 assay) to activate the receptor. The degree of inhibition was determined by comparing calcium signals between compound-treated and untreated cells. IC50 calculations were further performed by non-linear squares regression analysis using Graphpad Prism (Graphpad Software, San Diego, Calif.). […]
In the tables below, structures and activity are provided for representative compounds described herein. Activity is provided as follows for either or both of the chemotaxis assay and/or calcium mobilization assays, described above.

IC50, < 1 µM:
CC(C)n1cnnc1-c1cc(Cl)ccc1NS(=O)(=O)c1ccc(C(C)(C)C)cc1 [Compound 1, 4-tert-butyl-N-(4-chloro-2-(4-isopropyl-4H-1,2,4-triazol-3-yl)phenyl)benzenesulfonamide]
CC(C)(C)c1ccc(S(=O)(=O)Nc2ccc(Cl)cc2-c2nncn2-c2ccccc2)cc1 [Compound 2, 4-tert-butyl-N-(4-chloro-2-(4-phenyl-4H-1,2,4-triazol-3-yl)phenyl)benzenesulfonamide]
Cc1nnc(-c2cc(Cl)ccc2NS(=O)(=O)c2ccc(C(C)(C)C)cc2)n1C(C)C [Compound 3, 4-tert-butyl-N-(4-chloro-2-(4-isopropyl-5-methyl-4H-1,2,4-triazol-3-yl)phenyl)benzenesulfonamide]
Cc1nnc(-c2cc(Cl)ccc2NS(=O)(=O)c2ccc(C(C)(C)C)cc2)n1-c1ccccc1 [Compound 4, 4-tert-butyl-N-(4-chloro-2-(5-methyl-4-phenyl-4H-1,2,4-triazol-3-yl)phenyl)benzenesulfonamide]
CCn1c(C)nnc1-c1cc(Cl)ccc1NS(=O)(=O)c1ccc(C(C)(C)C)cc1 [Compound 5, 4-tert-butyl-N-(4-chloro-2-(4-ethyl-5-methyl-4H-1,2,4-triazol-3-yl)phenyl)benzenesulfonamide]
Cc1nnc(-c2cc(Cl)ccc2NS(=O)(=O)c2ccc(C(C)(C)C)cc2)n1C [Compound 6, 4-tert-butyl-N-(4-chloro-2-(4,5-dimethyl-4H-1,2,4-triazol-3-yl)phenyl)benzenesulfonamide]
Cc1nnc(-c2cc(Cl)ccc2NS(=O)(=O)c2ccc(C(C)(C)C)cc2)n1C1CC1 [Compound 7, 4-tert-butyl-N-(4-chloro-2-(4-cyclopropyl-5-methyl-4H-1,2,4-triazol-3-yl)phenyl)benzenesulfonamide]
CC(C)c1nnc(-c2cc(Cl)ccc2NS(=O)(=O)c2ccc(C(C)(C)C)cc2)n1C [Compound 8, 4-tert-butyl-N-(4-chloro-2-(5-isopropyl-4-methyl-4H-1,2,4-triazol-3-yl)phenyl)benzenesulfonamide]
Cn1c(-c2cc(Cl)ccc2NS(=O)(=O)c2ccc(C(C)(C)C)cc2)nnc1C1CCOCC1 [Compound 9]
COCc1nnc(-c2cc(Cl)ccc2NS(=O)(=O)c2ccc(C(C)(C)C)cc2)n1C [Compound 10, 4-tert-butyl-N-(4-chloro-2-(5-(methoxymethyl)-4-methyl-4H-1,2,4-triazol-3-yl)phenyl)benzenesulfonamide]
CC(C)c1nnc(-c2cc(Cl)ccc2NS(=O)(=O)c2ccc(C(C)(C)C)cc2)n1C(C)C [Compound 11, 4-tert-butyl-N-(4-chloro-2-(4,5-diisopropyl-4H-1,2,4-triazol-3-yl)phenyl)benzenesulfonamide]
Cc1nnc(-c2cc(Cl)ccc2NS(=O)(=O)c2ccc(C(C)(C)C)cc2)n1C1CCOCC1 [Compound 12]
CCc1nnc(-c2cc(Cl)ccc2NS(=O)(=O)c2ccc(C(C)(C)C)cc2)n1C(C)C [Compound 13, 4-tert-butyl-N-(4-chloro-2-(5-ethyl-4-isopropyl-4H-1,2,4-triazol-3-yl)phenyl)benzenesulfonamide]
Cc1nnc(-c2cc(Cl)ccc2NS(=O)(=O)c2ccc(C(C)(C)C)cc2)n1C1CCCC1 [Compound 14, 4-tert-butyl-N-(4-chloro-2-(4-cyclopentyl-5-methyl-4H-1,2,4-triazol-3-yl)phenyl)benzenesulfonamide]
Cc1nnc(-c2cc(Cl)ccc2NS(=O)(=O)c2ccc(OC(C)C)cc2)n1C(C)C [Compound 15, N-(4-chloro-2-(4-isopropyl-5-methyl-4H-1,2,4-triazol-3-yl)phenyl)-4-isopropoxybenzenesulfonamide]
